From ChEMBL document CHEMBL3621090, “Discovery of a novel Kv7 channel opener as a treatment for epilepsy” (Bioorg Med Chem Lett, 2015) come the findings set out here.

The subject of series [1] is Rattus norvegicus. Briefly: Anticonvulsant activity in Sprague-Dawley rat assessed as protection against maximal electroshock-induced convulsion at 1 mg/kg, po administered 60 mins prior to application of shock via corneal electrodes relative to control. The series is classed as functional. In general terms: The maximal electroshock test induces tonic seizures with an electrical stimulus.

Series [2] can be described thus: Ratio of free drug level in plasma to brain in Sprague-Dawley rat at 1 mg/kg, po administration at 60 mins. The series is classed as ADME, organism-based. As to conditions: in vivo, 1 h.
The nature of series [3]: Ratio of free drug level in plasma to brain in Sprague-Dawley rat at 10 mg/kg, sc administration at 30 mins. The series is classed as ADME, organism-based. As to conditions: in vivo, 0.5 h.
Series [4] deals with Voltage-gated potassium channel, IKs; KCNQ1(Kv7.1)/KCNE1(MinK) (Homo sapiens, UniProt P51787+P15382). Briefly: Activation of human Kv7.1/KCNE1 expressed in CHOK1 cells assessed as increase in current amplitude relative to control. The series is classed as cell-based. As to conditions: cho-k1.
In series [5] the target is T1, Potassium voltage-gated channel subfamily KQT member 4 (Rattus norvegicus) (UniProt Q9JK96).
T1 sequence (whole entry): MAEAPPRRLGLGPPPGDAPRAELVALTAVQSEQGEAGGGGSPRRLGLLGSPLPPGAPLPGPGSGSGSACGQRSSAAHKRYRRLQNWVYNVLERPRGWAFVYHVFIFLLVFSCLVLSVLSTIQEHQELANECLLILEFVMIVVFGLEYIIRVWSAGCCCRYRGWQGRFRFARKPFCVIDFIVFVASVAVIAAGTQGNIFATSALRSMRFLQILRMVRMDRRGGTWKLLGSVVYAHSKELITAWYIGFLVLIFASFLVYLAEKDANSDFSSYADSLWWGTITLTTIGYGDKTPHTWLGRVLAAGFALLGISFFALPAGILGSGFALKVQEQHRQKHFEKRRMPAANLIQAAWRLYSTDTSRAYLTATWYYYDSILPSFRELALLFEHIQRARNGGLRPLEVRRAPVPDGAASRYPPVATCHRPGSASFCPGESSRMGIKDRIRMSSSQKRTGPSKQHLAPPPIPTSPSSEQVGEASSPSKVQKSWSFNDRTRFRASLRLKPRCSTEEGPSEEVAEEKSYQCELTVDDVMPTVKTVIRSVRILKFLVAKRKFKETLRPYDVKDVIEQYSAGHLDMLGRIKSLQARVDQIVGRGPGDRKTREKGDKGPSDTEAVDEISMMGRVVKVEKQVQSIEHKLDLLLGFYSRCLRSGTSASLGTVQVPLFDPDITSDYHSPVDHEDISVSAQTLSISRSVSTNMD
In words: Activation of rat Kv7.4 expressed in CHOK1 cells assessed as increase in current amplitude relative to control. As to conditions: CHO-K1. The series is classed as cell-based.

The test system of series [6] is Brain. Briefly: Fraction unbound in Sprague-Dawley rat brain at 10 mg/kg, po administered at 60 mins by LC-MS/MS analysis. The series is classed as ADME, organism-based. As to conditions: in vivo, 1 h.
Series [7] concerns Plasma. In words: Unbound plasma concentration in Sprague-Dawley rat at 3 mg/kg, sc administered at 30 mins by LC-MS/MS analysis. The series is classed as ADME, organism-based. As to conditions: in vivo, 0.5 h.
Series [8] deals with T2, Potassium voltage-gated channel subfamily KQT member 4 (Rattus norvegicus, UniProt Q9JK96).
T2 sequence (Q9JK96 whole entry): T1 sequence (whole entry)
In words: Activation of rat Kv7.4 expressed in CHOK1 cells. The series is classed as cell-based, CHO-K1.

In series [9] the test system is Brain. Briefly: Fraction unbound in Sprague-Dawley rat brain at 10 mg/kg, sc administered at 30 mins by LC-MS/MS analysis. The series is classed as ADME, organism-based. As to conditions: in vivo, 0.5 h.
Series [10] relates to Plasma. In words: Unbound plasma concentration in Sprague-Dawley rat at 10 mg/kg, sc administered at 30 mins by LC-MS/MS analysis. The series is classed as ADME, organism-based. As to conditions: in vivo, 0.5 h.
Series [11] in a line: Ratio of free drug level in plasma to brain in Sprague-Dawley rat at 30 mg/kg, po administration at 60 mins. The series is classed as ADME, organism-based. As to conditions: in vivo, 1 h.
Series [12] deals with Plasma. Briefly: Unbound plasma concentration in Sprague-Dawley rat at 10 mg/kg, po administered at 60 mins by LC-MS/MS analysis. The series is classed as ADME, organism-based. As to conditions: in vivo, 1 h.
Series [13] relates to Rattus norvegicus. In words: Anticonvulsant activity in Sprague-Dawley rat assessed as protection against maximal electroshock-induced convulsion at 10 mg/kg, po administered 60 mins prior to application of shock via corneal electrodes relative to control. The series is classed as functional.
Series [14] relates to Brain. In words: Fraction unbound in Sprague-Dawley rat brain at 3 mg/kg, po administered at 60 mins by LC-MS/MS analysis. The series is classed as ADME, organism-based. As to conditions: in vivo, 1 h.
The target in series [15] is Potassium voltage-gated channel subfamily KQT member 2/member 3 (Rattus norvegicus, UniProt O88943+O88944). Briefly: Activation of rat Kv7.2/7.3 expressed in CHOK1 cells. The series is classed as cell-based, CHO-K1.
Chain of Potassium voltage-gated channel subfamily KQT member 2/member 3 (O88943 whole entry): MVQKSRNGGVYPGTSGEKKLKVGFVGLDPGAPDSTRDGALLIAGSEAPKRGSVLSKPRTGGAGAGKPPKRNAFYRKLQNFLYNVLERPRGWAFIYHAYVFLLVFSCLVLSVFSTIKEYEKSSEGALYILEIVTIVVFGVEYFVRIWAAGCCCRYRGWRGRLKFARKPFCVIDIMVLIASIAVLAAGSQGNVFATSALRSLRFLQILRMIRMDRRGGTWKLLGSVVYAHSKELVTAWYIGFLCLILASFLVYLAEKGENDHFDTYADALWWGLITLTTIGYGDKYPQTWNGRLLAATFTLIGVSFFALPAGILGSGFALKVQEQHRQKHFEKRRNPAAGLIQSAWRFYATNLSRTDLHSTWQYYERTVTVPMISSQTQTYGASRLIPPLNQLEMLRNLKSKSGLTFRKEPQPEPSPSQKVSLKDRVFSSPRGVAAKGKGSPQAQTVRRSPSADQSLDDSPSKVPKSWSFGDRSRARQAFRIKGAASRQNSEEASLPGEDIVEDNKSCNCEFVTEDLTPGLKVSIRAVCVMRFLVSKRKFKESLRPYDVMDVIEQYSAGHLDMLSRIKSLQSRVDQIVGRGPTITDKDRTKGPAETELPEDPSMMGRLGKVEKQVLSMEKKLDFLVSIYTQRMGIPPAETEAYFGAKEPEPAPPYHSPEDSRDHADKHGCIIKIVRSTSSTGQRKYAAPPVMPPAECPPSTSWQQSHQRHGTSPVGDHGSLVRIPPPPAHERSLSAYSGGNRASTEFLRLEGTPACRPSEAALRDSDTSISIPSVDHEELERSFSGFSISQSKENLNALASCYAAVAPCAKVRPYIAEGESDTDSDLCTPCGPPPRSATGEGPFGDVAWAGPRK
Chain of Potassium voltage-gated channel subfamily KQT member 2/member 3 (O88944 whole entry): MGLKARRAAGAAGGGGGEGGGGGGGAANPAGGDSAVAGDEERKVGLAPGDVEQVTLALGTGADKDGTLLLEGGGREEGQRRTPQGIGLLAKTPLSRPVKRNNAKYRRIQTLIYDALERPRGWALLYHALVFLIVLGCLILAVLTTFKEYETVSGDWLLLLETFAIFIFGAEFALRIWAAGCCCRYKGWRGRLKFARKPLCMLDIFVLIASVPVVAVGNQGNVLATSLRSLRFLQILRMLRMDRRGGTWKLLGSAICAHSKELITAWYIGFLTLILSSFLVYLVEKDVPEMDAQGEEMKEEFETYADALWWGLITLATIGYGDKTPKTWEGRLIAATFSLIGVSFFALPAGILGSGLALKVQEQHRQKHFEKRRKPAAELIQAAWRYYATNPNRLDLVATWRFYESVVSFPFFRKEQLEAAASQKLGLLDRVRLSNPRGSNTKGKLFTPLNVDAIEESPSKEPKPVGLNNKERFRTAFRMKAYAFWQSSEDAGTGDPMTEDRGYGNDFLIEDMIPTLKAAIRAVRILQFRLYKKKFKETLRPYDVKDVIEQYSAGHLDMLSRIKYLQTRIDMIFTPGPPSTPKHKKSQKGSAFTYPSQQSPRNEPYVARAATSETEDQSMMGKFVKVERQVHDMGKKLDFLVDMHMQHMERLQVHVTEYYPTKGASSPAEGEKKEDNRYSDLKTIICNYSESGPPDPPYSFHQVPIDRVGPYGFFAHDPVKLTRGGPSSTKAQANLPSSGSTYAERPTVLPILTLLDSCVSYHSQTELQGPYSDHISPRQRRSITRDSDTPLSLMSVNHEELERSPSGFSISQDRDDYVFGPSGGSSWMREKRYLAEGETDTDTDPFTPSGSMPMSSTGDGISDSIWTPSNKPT
Series [16] deals with Potassium voltage-gated channel subfamily KQT member 2/member 3 (Rattus norvegicus) (UniProt O88943+O88944). In words: Activation of rat Kv7.2/7.3 expressed in CHOK1 cells assessed as increase in current amplitude relative to control. The series is classed as cell-based. As to conditions: CHO-K1.
The subject of series [17] is Rattus norvegicus. In words: Anticonvulsant activity in Sprague-Dawley rat assessed as protection against maximal electroshock-induced convulsion at 30 mg/kg, sc administered 30 mins prior to application of shock via corneal electrodes relative to control. The series is classed as functional.
Series [18] addresses Voltage-gated potassium channel KCNQ3/KCNQ5 (Homo sapiens, UniProt O43525+Q9NR82). Briefly: Activation of human Kv7.3/7.5 expressed in CHOK1 cells. The series is classed as cell-based, CHO-K1.
Series [19] relates to Rattus norvegicus. In words: Anticonvulsant activity in Sprague-Dawley rat assessed as protection against maximal electroshock-induced convulsion at 1 mg/kg, sc administered 30 mins prior to application of shock via corneal electrodes relative to control. The series is classed as functional.
Series [20] is described as follows: Permeability in dog RRCK cells after 2 hrs by transwell assay. The series is classed as ADME, cell-based, Canis lupus familiaris, MDCKII-LE. As to conditions: mdck, read-out: permeability.
Series [21] in a line: Ratio of free drug level in plasma to brain in Sprague-Dawley rat at 3 mg/kg, po administration at 60 mins. As to conditions: in vivo, 1 h. The series is classed as ADME, organism-based.
Series [22] deals with Voltage-gated potassium channel, IKs; KCNQ1(Kv7.1)/KCNE1(MinK) (Homo sapiens, UniProt P15382+P51787). Briefly: Activation of human Kv7.1/KCNE1 expressed in CHOK1 cells. The series is classed as cell-based, CHO-K1.
Chain of Voltage-gated potassium channel, IKs; KCNQ1(Kv7.1)/KCNE1(MinK) (Homo sapiens, UniProt P15382+P51787) (P51787 whole entry): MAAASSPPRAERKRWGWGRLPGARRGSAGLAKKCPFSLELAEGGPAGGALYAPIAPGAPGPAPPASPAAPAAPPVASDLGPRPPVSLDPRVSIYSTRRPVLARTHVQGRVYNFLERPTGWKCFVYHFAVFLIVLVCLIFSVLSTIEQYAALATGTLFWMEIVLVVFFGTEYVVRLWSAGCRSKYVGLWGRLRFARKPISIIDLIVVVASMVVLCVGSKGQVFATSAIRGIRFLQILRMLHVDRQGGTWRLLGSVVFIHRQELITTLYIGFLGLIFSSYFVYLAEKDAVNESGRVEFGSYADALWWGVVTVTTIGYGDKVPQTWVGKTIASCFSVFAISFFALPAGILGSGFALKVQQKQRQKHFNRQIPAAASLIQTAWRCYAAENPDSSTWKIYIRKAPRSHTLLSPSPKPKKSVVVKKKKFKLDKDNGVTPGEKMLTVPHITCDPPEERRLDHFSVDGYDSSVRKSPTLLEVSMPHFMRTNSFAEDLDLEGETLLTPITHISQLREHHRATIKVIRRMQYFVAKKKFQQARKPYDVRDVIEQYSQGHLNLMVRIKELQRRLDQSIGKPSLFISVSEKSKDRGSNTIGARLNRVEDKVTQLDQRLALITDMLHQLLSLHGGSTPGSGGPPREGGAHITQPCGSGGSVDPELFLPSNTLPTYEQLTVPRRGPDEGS

Some results are limits rather than exact numbers.

Chain of Voltage-gated potassium channel KCNQ3/KCNQ5 (O43525 whole entry): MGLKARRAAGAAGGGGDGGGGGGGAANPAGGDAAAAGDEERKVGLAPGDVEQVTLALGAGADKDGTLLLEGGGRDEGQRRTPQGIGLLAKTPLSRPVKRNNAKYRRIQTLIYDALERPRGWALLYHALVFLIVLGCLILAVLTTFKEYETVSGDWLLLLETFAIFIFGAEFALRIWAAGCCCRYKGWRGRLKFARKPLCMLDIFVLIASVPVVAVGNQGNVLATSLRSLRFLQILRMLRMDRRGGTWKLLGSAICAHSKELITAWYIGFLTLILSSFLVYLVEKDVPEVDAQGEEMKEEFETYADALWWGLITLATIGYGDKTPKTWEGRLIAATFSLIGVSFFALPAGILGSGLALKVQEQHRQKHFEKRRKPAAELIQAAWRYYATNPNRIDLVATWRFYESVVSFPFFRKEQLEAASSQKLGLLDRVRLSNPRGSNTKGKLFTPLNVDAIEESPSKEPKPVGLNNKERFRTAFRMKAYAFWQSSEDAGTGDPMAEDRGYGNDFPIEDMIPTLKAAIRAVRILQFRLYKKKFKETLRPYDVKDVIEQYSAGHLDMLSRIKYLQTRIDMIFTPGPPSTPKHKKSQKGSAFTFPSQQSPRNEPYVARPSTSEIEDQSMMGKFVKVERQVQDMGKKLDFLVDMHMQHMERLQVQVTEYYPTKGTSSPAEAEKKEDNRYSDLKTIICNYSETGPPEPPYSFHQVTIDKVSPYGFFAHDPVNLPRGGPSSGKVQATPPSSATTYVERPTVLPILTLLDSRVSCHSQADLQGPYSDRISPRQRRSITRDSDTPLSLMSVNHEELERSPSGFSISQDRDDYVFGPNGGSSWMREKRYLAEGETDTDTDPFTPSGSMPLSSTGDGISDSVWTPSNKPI
Chain of Voltage-gated potassium channel KCNQ3/KCNQ5 (Q9NR82 whole entry): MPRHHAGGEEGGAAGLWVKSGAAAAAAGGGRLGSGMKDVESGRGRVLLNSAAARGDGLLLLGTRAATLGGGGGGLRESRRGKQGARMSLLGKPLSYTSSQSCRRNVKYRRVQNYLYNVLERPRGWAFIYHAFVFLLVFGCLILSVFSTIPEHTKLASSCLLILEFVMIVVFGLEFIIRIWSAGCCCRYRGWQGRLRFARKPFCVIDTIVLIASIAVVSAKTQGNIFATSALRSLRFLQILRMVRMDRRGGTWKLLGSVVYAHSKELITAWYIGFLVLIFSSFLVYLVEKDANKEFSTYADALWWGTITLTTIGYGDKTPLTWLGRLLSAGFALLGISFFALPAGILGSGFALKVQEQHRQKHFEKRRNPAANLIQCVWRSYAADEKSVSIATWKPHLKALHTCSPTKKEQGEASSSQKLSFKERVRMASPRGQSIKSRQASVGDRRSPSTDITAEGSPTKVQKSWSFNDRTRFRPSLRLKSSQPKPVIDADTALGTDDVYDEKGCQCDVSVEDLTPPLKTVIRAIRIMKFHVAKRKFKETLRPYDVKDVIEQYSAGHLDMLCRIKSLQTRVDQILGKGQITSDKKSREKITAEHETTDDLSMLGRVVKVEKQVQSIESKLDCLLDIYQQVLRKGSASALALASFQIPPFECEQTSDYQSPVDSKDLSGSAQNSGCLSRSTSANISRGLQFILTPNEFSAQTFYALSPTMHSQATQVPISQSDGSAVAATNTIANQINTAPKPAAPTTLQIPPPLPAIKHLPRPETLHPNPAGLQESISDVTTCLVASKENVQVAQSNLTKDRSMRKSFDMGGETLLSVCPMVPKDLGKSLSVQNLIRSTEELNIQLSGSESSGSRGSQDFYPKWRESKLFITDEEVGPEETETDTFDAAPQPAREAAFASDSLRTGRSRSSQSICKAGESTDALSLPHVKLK

As usually defined, the EC50 is the concentration giving half of the maximal effect. Take `COc1nc(N2CCC(OC)CC2)nc(OC)c1NC(=O)CC(C)(C)C`: the Activity came to 0% in the series on Rattus norvegicus [1]; 84% in series [4]; 161% in series [5]; 100% with Rattus norvegicus [13]; 237% in series [16]; 100% in the series on Rattus norvegicus [17]. Further, the Activity with Rattus norvegicus [19] is 43%. Further, the Ratio was found to be 0.42 in series [2], 0.59 in [3], 0.48 in series [11] and 0.39 in series [21]. Further, the “Drug uptake(free)” value in the series on Brain [6] was determined as 83 nM; in the series with Brain [9], 125 nM; in the series on Brain [14], 43 nM. Further, the “Cp(f)” value stood at 151 nM with Plasma [7], 211 nM in the series with Plasma [10] and 225 nM in the series on Plasma [12]. The EC50 in series [8] is 0.376 µM; in [15], 0.294 µM; in series [18] it was 0.588 µM; in [22] it was above 100 µM. The Papp at 2 h in series [20] came to 24.9 ×10⁻⁶ cm/s.
